In US11766413B2 (Nacuity Pharmaceuticals, Inc., priority 2019, dated 2023):
“Also recorded” adds a separate entry of the source.

What was measured:
[1] = Evaluation of retinal penetration of NACA: NACA and NAC levels in plasma, aqueous, vitreous and retina after NACA in drinking water; assay type: in vivo, mice (rd10/rd10 and wild type C57/BL6); settings: for concentration at 7 days: mouse, retina, oral, 20 mg/mL in drinking water, 20 mg/mL NACA in drinking water, P28 to P35, estimated dose 60-80 mg/day; for mean levels in the retina compared with plasma / measurability in the retina: animals treated with NACA; for measurability in the retina: N=20 eyes per strain; for measurements in aqueous, vitreous and retina: nearly all measurements, limit of quantification of the assay
Experimental: Animals and Treatments. Mice were treated in accordance with the recommendations of the Association for Research in Vision and Ophthalmology. Litters of homozygous rd10/rd10 mice (B6.CXB1-Pde6brd10/J) and wild type C57/BL6 mice (The Jackson Laboratory, Bar Harbor, Me.) were used for these studies.
Starting on post-natal day 28 (P28), animals were given normal drinking water (n=10 for each strain) or water containing 20 mg/ml NACA (n=10 for each strain).
Analysis of NACA and NAC. Upon sacrifice of the mice on P35, retina, aqueous, vitreous and plasma were collected, weighed, and stabilized as quickly as possible and stored at −80° C. prior to shipment to AIT Bioscience, LLC (Indianapolis, Ind.). The bioanalytical method (BAM.0445.01) for the quantitation of total NAC NACA in K2EDTA was based on derivatization, protein precipitation extraction, and LC-MS/MS instrumental analysis. Any disulfides were reduced to free thiols and subsequently reacted with 2-chloro-1-methylpyridinium iodide (CMPI) to form stable thioethers. The thioether derivatives were detected by LC-MS/MS. Stable label isotope internal standards were used. The method covered a concentration range from 50.0 to 50,000 ng/mL. The thiol moiety of NAC, NACA, and their respective internal standards oxidizes quickly in plasma through formation of disulfides. In order to determine total NAC and total NACA levels in plasma, tris(2-carboxyethyl)phosphine (TCEP) is added during the extraction to reduce disulfide bonds. Ammonium bicarbonate is added to control sample pH near neutral, as TCEP will otherwise acidify the aliquoted samples and hinder derivatization. The free analyte is then derivatized to a stable thioether using 2-chloro-1-methylpyridinium iodide (CMPI). N-acetyl-L-cysteine is used as the reference standard. The assay would not discern the enantiomer, N-acetyl-D-cysteine, if present. A sample volume of 25.0 μL was aliquotted into a 1.2 mL 96-well plate to which was added, in sequence, 25.0 μL internal standard solution (1000 ng/mL NAC-D3 and 1000 ng/mL NACA-D3 in water), 50.0 μL of ammonium bicarbonate (100 mM), 5.0 μL CMPI (60 mM in water), and 5.0 μL of TCEP (60 mM in water). Samples were allowed to react for 30 minutes. To precipitate proteins, 500 μL of acetonitrile was then added to all samples. The plate was covered and the mixtures were shaken and centrifuged. A 50.0 μL aliquot of the supernatant was transferred from each well to a clean plate containing 400 μL of water-acetonitrile (25-75) in each well, and mixed well prior to LC-MS injection.
Samples were analyzed on a Waters Acquity liquid chromatograph interfaced with a Thermo Scientific TSQ Vantage triple quadrupole mass spectrometer with ESI ionization. Each extracted sample was injected (5.0 μL) onto a Waters BEH HILIC column (2.1×100 mm; 1.7 μm) equilibrated at 35° C. Mobile Phase A was ammonium formate (25 mM, pH 3.8). Mobile Phase B was acetonitrile. The LC gradient is tabled below: […]
Peak area ratios from the calibration standard responses were regressed using a (1/concentration^2) linear fit for N-Acetyl-L-Cysteine and N-Acetylcysteine amide.
Evaluation of Retinal Penetration of NACA. To determine retinal levels of NACA/NAC after administration of 20 mg/mL NACA in drinking water for 7 days. This experiment will provide rapid confirmation that NACA and/or NAC penetrate the retina following oral administration. This experiment will also evaluate if the breakdown in the blood-retinal barrier in RP affects the levels of NACA in the retina by comparing animals with RP to wild type mice.
Rd10 and C57BL/6 wild type mice will begin treatment at P28 and at P35 mice will be euthanized and plasma, vitreous and retina samples will be sent to AITB for determination of NAC and NACA levels. Experimental groups: (n=10/group). The research was performed in 3 discrete experiments: […]

[2] = humans, oral dose of 600 mg; cited from earlier work
diabetic rats = settings: cited from earlier work
[3] = molecular target: T1, glutamate cysteine ligase (GCL, EC 6.3.2.2) (Homo sapiens, UniProt P48506); settings: substrate of GCL; read-out: apparent Km; cited from earlier work
T1 sequence (P48506 1-637): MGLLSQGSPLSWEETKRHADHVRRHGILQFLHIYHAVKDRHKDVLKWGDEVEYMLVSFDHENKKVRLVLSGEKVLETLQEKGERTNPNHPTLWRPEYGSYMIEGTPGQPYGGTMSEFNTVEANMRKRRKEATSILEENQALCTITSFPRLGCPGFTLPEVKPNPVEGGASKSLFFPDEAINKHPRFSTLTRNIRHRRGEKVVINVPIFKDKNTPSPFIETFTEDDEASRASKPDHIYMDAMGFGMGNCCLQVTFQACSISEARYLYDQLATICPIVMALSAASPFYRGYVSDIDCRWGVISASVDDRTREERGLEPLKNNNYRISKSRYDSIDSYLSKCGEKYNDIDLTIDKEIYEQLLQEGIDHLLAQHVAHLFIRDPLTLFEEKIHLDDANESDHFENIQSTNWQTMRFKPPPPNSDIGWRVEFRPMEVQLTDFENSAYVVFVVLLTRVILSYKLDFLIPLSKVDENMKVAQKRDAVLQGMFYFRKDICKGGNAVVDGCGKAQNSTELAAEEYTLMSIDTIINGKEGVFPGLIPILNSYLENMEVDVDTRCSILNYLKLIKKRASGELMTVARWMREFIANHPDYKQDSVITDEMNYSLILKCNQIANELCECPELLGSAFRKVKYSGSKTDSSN
T1 sequence (P48507 1-274 partner): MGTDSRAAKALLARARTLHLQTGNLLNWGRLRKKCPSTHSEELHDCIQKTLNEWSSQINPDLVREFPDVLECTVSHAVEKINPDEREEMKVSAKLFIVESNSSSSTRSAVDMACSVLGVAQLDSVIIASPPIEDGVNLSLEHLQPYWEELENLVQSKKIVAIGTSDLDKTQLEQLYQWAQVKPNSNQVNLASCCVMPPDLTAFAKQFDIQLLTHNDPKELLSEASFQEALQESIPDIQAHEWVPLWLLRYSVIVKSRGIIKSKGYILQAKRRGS

[4] = 20 mg/ml NACA in drinking water

Structure (SMILES) | mean levels in aqueous humor compared with plasma [1, 4] | mean levels in plasma, rd10 compared with wild type [1, 4] | concentration at 7 days ([1]; C57/BL6 (wild type), wild type mice) | mean concentration in the aqueous humor, rd10 compared with wild type ([1]; N=8 eyes rd10, N=10 C57/B16) | mean levels in the retina compared with plasma [1] | measurability in the retina [1] | mean NACA levels in plasma compared with NAC levels ([1]; both strains, 20 mg/ml NACA in drinking water, N=10 per strain) | measurements in aqueous, vitreous and retina [1] | ratio of NACA:NAC in the retina, rd10 compared with C57/B16 ([1]; oral NACA 20 mg/mL in drinking water) | concentration at 7 days ([1]; rd10/rd10 (B6.CXB1-Pde6brd10/J), rd10 mice) | time after administration at which no NAC is detectable [2] | expression of VEGF and ICAM-1 (diabetic rats; after 5-month treatment) | up-regulation of VEGF and ICAM-1 expression in retinal blood vessels (diabetic rats) | reactive oxygen species contents in the retinas (diabetic rats; most significantly at 5 months) | retinal pathological changes (electron and light microscopy) (diabetic rats; sacrificed at 3 and 5 months) | Km [3]
CC(=O)N[C@@H](CS)C(N)=O | lower than in plasma | greater in rd10 mice than in the wild type | ~2400 ng/g | higher in rd10 mice than wild type | higher than those observed in plasma | measurable in all animals | greater than the NAC levels | BLQ | penetrated retina to a greater extent in rd10 mice than in C57/B16 mice; also recorded: greater in the retina of rd10 mice than in C57/B16 mice | ~6500 ng/g | – | – | – | – | – | –
CC(=O)N[C@@H](CS)C(=O)O [NAC, N-acetyl-L-cysteine, reference compound] | lower than in plasma | greater in rd10 mice than in the wild type | – | – | higher than those observed in plasma | measurable in all animals | – | BLQ | – | – | 10 to 12 h | returned to basal levels | attenuated | decreased reactive oxygen species | alleviated the pathological changes | –
N[C@@H](CS)C(=O)O [cysteine, L-cysteine] | – | – | – | – | – | – | – | – | – | – | – | – | – | – | – | 100 to 300 µM
